Laboratory results taken from patent publication US7524930B2, “Tumor antigen” (Green Peptide Co., Ltd, priority 2003, dated 2009).
Peptide text beside a SMILES is read from it.

Tests used:
[1] = system: peripheral blood mononuclear cells derived from a cancer patient; format: cell-based, human
Method: Moreover, CTL-activating ability of these 19 peptides was directly examined in a ^51Cr-releasing test using toxicity to the target cells as an indicator. Specifically, the above-described PBMC, in which CTL was induced, was further recultured to proliferate in the presence of autologous APC, IL-2, and a corresponding peptide. At about day 21 to 28 after the start of reculturing, PBMC was collected and cytotoxicity thereof was tested again by measuring IFN-γ and by a 6-h ^51Cr-releasing test. PBMC of the cancer patient, which was stimulated by these peptides, lysed the HLA-A2^+ tumor cells. However, the autologous EBV-B cells and the T cells stimulated by PHA, both of which were derived from normal cells and were expressing HLA-A2, and the HLA-A2^− tumor cell RERF-LC-MS, were not lysed.

[2] = system: Panc-1 cells and YPK-3 cells; test: 51Cr-releasing test of CTLs induced by KM-PA-2 peptides (Example 8); format: cell-based, human; details: result in words; for Lysis of HLA-A2- tumor cell and normal cells by peptide-induced CTLs: PaCa-2, EBV-B cell line OKAB2, PHA-stimulated T cells; for Lysis of HLA-A2+ tumor cells by peptide-induced CTLs: Panc-1 cells and YPK-3 cells
From the text: The ability of the synthesized peptide to induce CTL from the peripheral blood mononuclear cells of the colon cancer patient, from whom OK-CTLp was obtained, was examined in the same way as that in Example 6. As a result, as shown in FIGS. 20A-20B, PBMC that was stimulated in vitro using any one of peptides P33 to P41 (SEQ ID NO:33 to SEQ ID NO:41) derived from KM-PA-2 and peptides P42 to P44 (SEQ ID NO:42 to SEQ ID NO:44) derived from KM-PA-4, produced IFN-γ through recognition of the T2 cells (left-hand figure of FIGS. 20A-20B,) which were pulsed with the peptide corresponding to that used for stimulation of the PBMC, and the Panc-1 cell (right-hand of FIGS. 20A-20B,) which is the HLA-A2^+ tumor cell. However, the PBMC reacted […] to the HLA-A2^− tumor cell. […] In addition, cytotoxicity of these CTLs induced by the peptides was directly confirmed by the ^51Cr-releasing test in the same way as that in Example 6. FIGS. 21A-21C show a representative example of the result. As shown in FIGS. 21A-21C, CTLs induced from PBMC of the cancer patient by P35, P39, or P40 lysed Panc-1 cells and YPK-3 cells, both of which are HLA-A2^+ tumor cells. However, the HLA-A2^− tumor cell PaCa-2, the EBV-B cell line OKAB2, and the T cells stimulated by PHA, was not lysed.

[3] = system: OK-CTLp; test: IFN-γ production by OK-CTLp against COS-7 cells cotransfected with cDNA clone and HLA-A0207 cDNA (ELISA); format: cell-based, human; details: result in words
Method: 200 ng of the above-described plasmid DNA pool or clones of Panc-1 cell cDNA library was mixed with 200 ng of the cDNA of HLA-A0207 in 100 μl of Opti-MEM (Invitrogen Corp.) for 30 min. 50 μl of this mixture was added to COS-7 cells (5×10^3) and incubated for 6 h in a 96-well U-bottom type microculture plate (Nunc Corp.) for co-tranduction. Then, RPMI-1640 culture medium containing 10% FCS was added to and culturing was carried out for 2 days, followed by the addition of OK-CTLp (5×10^4) to each well. After a further 18 h incubation, 100 μl of the supernatant was collected and IFN-γ production was measured thereon by ELISA. […]
From the genes encoding the tumor antigens (Biochim. Biophys. Res. Commun., 281:936-944, 2001), which were detected by the SEREX (Serological Analysis of Recombinant cDNA Expression Libraries) method (Proc. Natl Acad. Sci. USA, 92:11910-[…], 1995) and already reported, two tumor antigen genes, KM-PA-2 and KM-PA-4; which can activate HLA-A2-restricted CTL, were found by using the same method as that of Example 2. […] However, among 1500 or more kinds of tumor antigens detected by this method, those identified as tumor antigens capable of inducing both cell-mediated immunity and humoral immunity are only MAGE-1, tyrosinase, and NY-ESO-1. […]

[4] = system: Panc-1 pancreatic adenocarcinoma cell (HLA-A2); test: 6-h 51Cr-releasing test of peptide-stimulated PBMC against Panc-1 (Example 6); format: cell-based, human
Method: Meanwhile, the above-described cells cultured for 10 days after stimulation by the peptide were further cultured for 10 days. The cytotoxicity of the obtained cells against the Panc-1 pancreatic adenocarcinoma cell (HLA-A2) was measured by the standard 6-h ^51Cr-releasing test in an E/T ratio of 10:1. The results obtained are presented as % specific lysis (table 7). Together with this step, cytotoxicity against SSTW-9 tumor cell as the HLA-A2^− tumor cell was measured to use as a background that was subtracted from the above-described result.

[5] = system: OK-CTLp or OK-CTL clone; test: Recognition of peptide-pulsed T2 cells by OK-CTLp or OK-CTL clone (IFN-γ ELISA); format: cell-based, human
[6] = system: human peripheral blood mononuclear cells (PBMC); test: CTL induction by peptide from PBMC of HLA-A2-positive cancer patients and healthy individuals, IFN-γ against peptide-pulsed T2 cells (Example 6); format: cell-based; details: for INF-γ production: peptide-pulsed T2 cells
Method: For six peptides (P21, P22, P24, P26, P30, and P32) with a purity of 95% or higher among peptides from P20 to P32 derived from gene 7 and CPSF among the tumor antigen peptide obtained in Example 4, the activity to induce CTL in vitro from human peripheral blood mononuclear cells (PBMC) was examined using IFN-γ production as an indicator. PBMC used was prepared from each peripheral blood of sixteen HLA-A2-positive cancer patients (4 patients with pancreatic cancer, seven patients with stomach cancer, and 5 patients with colon cancer) and six healthy individuals. Specifically, 1×10^5 PBMC was added to each well of 96-well U-bottom type microculture plate (Nunc Corp.) and incubated together with 10 μM of each of the above-described peptides in 200 μl culture medium. The culture medium consisted of 45% RPMI-1640, 45% AIM-V (Invitrogen Corp.,) 10% fetal calf serum (FCS), 100U/ml of human interleukin-2, and […] MEM nonessential amino acid solution (Invitrogen Corp.). At day 4 and day 7 after the start of culturing, half of the culture medium was removed and replaced with the above-described composition containing each corresponding peptide. At day 10 after the start of culturing, the cells were collected and washed, followed by reacting with T2 cells, which were pulsed with each corresponding peptide, to measure the amount of IFN-γ produced.

CC[C@H](C)[C@H](NC(=O)[C@@H](NC(=O)[C@@H](N)CCCNC(=N)N)[C@@H](C)CC)C(=O)N[C@@H](Cc1ccc(O)cc1)C(=O)N[C@@H](CC(=O)O)C(=O)N[C@@H](CCCNC(=N)N)C(=O)N[C@@H](CCCCN)C(=O)N[C@@H](Cc1ccccc1)C(=O)N[C@@H](CC(C)C)C(=O)O [Peptide P14] (H-RIIYDRKFL-OH)
Cytotoxicity of peptide-stimulated PBMC to the autologous EBV-B cells [1]: showed cytotoxicity

CC[C@H](C)[C@H](N)C(=O)N[C@H](C(=O)N[C@@H](Cc1ccc(O)cc1)C(=O)N[C@@H](CC(=O)O)C(=O)N[C@@H](CCCNC(=N)N)C(=O)N[C@@H](CCCCN)C(=O)N[C@@H](Cc1ccccc1)C(=O)N[C@@H](CC(C)C)C(=O)N[C@@H](CCSC)C(=O)O)[C@@H](C)CC [Peptide P15] (H-IIYDRKFLM-OH)
Cytotoxicity of peptide-stimulated PBMC to the autologous EBV-B cells [1]: showed cytotoxicity

CC(C)C[C@H](NC(=O)CN)C(=O)N[C@@H](CC(C)C)C(=O)N[C@@H](Cc1ccccc1)C(=O)N[C@@H](CC(C)C)C(=O)N[C@@H](Cc1c[nH]cn1)C(=O)N[C@H](C(=O)N[C@@H](CCCNC(=N)N)C(=O)N[C@H](C(=O)O)[C@@H](C)O)[C@@H](C)O [Peptide P17] (H-GLLFLHTRT-OH)
Cytotoxicity of peptide-stimulated PBMC to the autologous EBV-B cells [1]: showed cytotoxicity

CC(C)C[C@H](NC(=O)[C@H](CCC(N)=O)NC(=O)[C@@H](N)CCC(N)=O)C(=O)N[C@@H](CS)C(=O)N[C@H](C(=O)N[C@@H](Cc1ccc(O)cc1)C(=O)N[C@@H](Cc1c[nH]c2ccccc12)C(=O)N[C@H](C(=O)N[C@H](C(=O)O)C(C)C)[C@@H](C)O)C(C)C [Peptide P19] (H-QQLCVYWTV-OH)
Cytotoxicity of peptide-stimulated PBMC to the autologous EBV-B cells [1]: showed high cytotoxicity

DLLQNPLLV (Designed peptide having an ability to activate HLA-A2 restricted Cytotoxic T lymphocytes) [Peptide P39, KM-PA-2 585-593]
Lysis of HLA-A2- tumor cell and normal cells by peptide-induced CTLs [2]: not lysed
Lysis of HLA-A2+ tumor cells by peptide-induced CTLs [2]: lysed

KM-PA-2: tumor antigen gene from CFPAC-1 (SEREX), 2060 bp [AB060694], homologous to KIAA0124 / Bop1
Recognition by OK-CTLp of COS-7 cells cotransfected with the cDNA and HLA-A0207 (IFN-γ production) [3]: induced IFN-γ production from OK-CTLp

KM-PA-4: tumor antigen gene from CFPAC-1 (SEREX), 1841 bp, identical to coactosin-like protein (CLP)
Recognition by OK-CTLp of COS-7 cells cotransfected with the cDNA and HLA-A0207 (IFN-γ production) [3]: induced IFN-γ production from OK-CTLp

LLQNPLLVPV (Designed peptide having an ability to activate HLA-A2 restricted Cytotoxic T lymphocytes) [Peptide P40, KM-PA-2 586-595]
Lysis of HLA-A2- tumor cell and normal cells by peptide-induced CTLs [2]: not lysed
Lysis of HLA-A2+ tumor cells by peptide-induced CTLs [2]: lysed

QLGQGNLKV [Peptide P23]
% specific lysis ([4]; PBMC of colon cancer patient 12, Panc-1, E/T 10:1): 18%
% specific lysis ([4]; PBMC of colon cancer patient 13, Panc-1, E/T 10:1): 10%
% specific lysis ([4]; PBMC of pancreatic cancer patient 2, Panc-1, E/T 10:1, SSTW-9 background subtracted): 53%
% specific lysis ([4]; PBMC of pancreatic cancer patient 4, Panc-1, E/T 10:1): 10%
% specific lysis ([4]; PBMC of stomach cancer patient 7, Panc-1, E/T 10:1): 10%
IFN-γ production ([5]; concentration of peptide 0.1 μM): 6360 pg/mL
IFN-γ production ([5]; concentration of peptide 1 μM): 0 pg/mL
IFN-γ production ([5]; concentration of peptide 10 μM): 345 pg/mL
IFN-γ production ([5]; concentration of peptide 50 μM): 160 pg/mL
INF-γ production ([6]; PBMC of colon cancer patient 12): 71 pg/mL
INF-γ production ([6]; PBMC of colon cancer patient 13): 138 pg/mL
INF-γ production ([6]; PBMC of colon cancer patient 14): 48 pg/mL
INF-γ production ([6]; PBMC of colon cancer patient 15): 14 pg/mL
INF-γ production ([6]; PBMC of colon cancer patient 16): 0 pg/mL
INF-γ production ([6]; PBMC of healthy individual HD1): 0 pg/mL
INF-γ production ([6]; PBMC of healthy individual HD2): 13 pg/mL
INF-γ production ([6]; PBMC of healthy individual HD3): 8 pg/mL
INF-γ production ([6]; PBMC of healthy individual HD4): 6 pg/mL
INF-γ production ([6]; PBMC of healthy individual HD5): 83 pg/mL
INF-γ production ([6]; PBMC of healthy individual HD6): 45 pg/mL
INF-γ production ([6]; PBMC of pancreatic cancer patient 1): 0 pg/mL
INF-γ production ([6]; PBMC of pancreatic cancer patient 2): 41 pg/mL
INF-γ production ([6]; PBMC of pancreatic cancer patient 3): 0 pg/mL
INF-γ production ([6]; PBMC of pancreatic cancer patient 4): 72 pg/mL
INF-γ production ([6]; PBMC of stomach cancer patient 5): 0 pg/mL
INF-γ production ([6]; PBMC of stomach cancer patient 6): 0 pg/mL
INF-γ production ([6]; PBMC of stomach cancer patient 7): 46 pg/mL
INF-γ production ([6]; PBMC of stomach cancer patient 8): 0 pg/mL
INF-γ production ([6]; PBMC of stomach cancer patient 9): 0 pg/mL
INF-γ production ([6]; PBMC of stomach cancer patient 10): 0 pg/mL
INF-γ production ([6]; PBMC of stomach cancer patient 11): 0 pg/mL
Patients in whom peptide-specific HLA-A2-restricted CTL were induced from PBMC ([6]; sixteen HLA-A2-positive cancer patients): 25%

WAQEDPNAV (Designed peptide having an ability to activate HLA-A2 restricted Cytotoxic T lymphocytes) [Peptide P35, KM-PA-2 172-180]
Lysis of HLA-A2- tumor cell and normal cells by peptide-induced CTLs [2]: not lysed
Lysis of HLA-A2+ tumor cells by peptide-induced CTLs [2]: lysed
